Assay results taken from US20050054702A1, “Method of controlling allergens” (Lonza Inc., priority 2003, published 2005).

Target: T1, Der p 1 allergen (Dermatophagoides pteronyssinus, UniProt P08176)
T1 sequence (P08176 99-320): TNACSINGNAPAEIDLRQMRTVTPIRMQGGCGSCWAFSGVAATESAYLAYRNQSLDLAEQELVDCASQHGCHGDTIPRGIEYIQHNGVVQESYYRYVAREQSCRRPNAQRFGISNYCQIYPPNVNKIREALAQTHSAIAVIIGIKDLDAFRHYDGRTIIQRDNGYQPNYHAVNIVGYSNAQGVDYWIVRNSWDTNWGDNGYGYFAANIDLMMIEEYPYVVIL
Test: ELISA method for Der p 1 Allergen (level of allergen recovered after exposure to active)
Format: biochemical
Settings: 10 min exposure to Ag, 62.5 ng/ml Ag in plate
Description: Several samples were tested using a standard Enzyme Linked Immunosorbent Assay, (ELISA). The ELISA method for Der p 1 Allergen was utilized. Der p 1 allergen is a standardized allergen. The ELISA method provides quantitative results correlating to the level of allergen recovered in the test.
In the ELISA method for Der p 1 Allergen, the coating antibody is Anti-Der p1 mAb 5H8, supplied as a HPLC purified stock solution at 2 mg/ml in phosphate buffered saline. The coating antibody was diluted in coating buffer (12 μl in 12 ml). 100 μl of the diluted coating antibody was dispensed in each well. The plate was held overnight at 4° C. Then the coating antibody was dumped from the plate and the plate was blotted dry. The well was washed 3 times with PBS-T and blotted dry. Next, 100 μl per well of blocking buffer (BSA PBS-T) was added and incubated for 30 minutes at room temperature. A standard curve (doubling dilutions between 250-0.5 ng/ml) was prepared. The experimental samples were prepared. “Controls” are actives exposed to the plate before addition of Ag. The exposure time was 1 hour. The Ag level used in the plate was 62.5 ng/ml as is for the Ag level in the active. “Samples” are Actives exposed to Ag before addition to the plate. Exposure time was 10 minutes before incubation in the plate for 1 hour. Actives were used in 1:1 ratio with 125 ng/ml Ag (yield 62.5 ng/ml Ag in test plate).
The plate was then washed, filled with standards, blanks, controls and samples and incubated for 1 hour. The detecting antibody was prepared. Next, the plate was washed and the detecting antibody was added to each well. The conjugate was prepared. The plate was washed and the conjugate was added. Just before washing the conjugate from the plate, H2O2 was added to the substrate solution. The plate was washed and the substrate was added. The plate was read when the absorbance of 250 ng/ml antigen standard (at 405 nm) reached 2.0-2.4.
The active levels in the table are listed in ppm and are diluted in half by antigen during testing.

[1] = diluent water, active 15,000 ppm (diluted in half by antigen during testing)
[2] = diluent water, active 10,000 ppm (diluted in half by antigen during testing)

## CCCCCCCCCCCCN(CCCN)CCCN [N,N-bis(3-aminopropyl) dodecylamine]
[1]
  % Reduction: 99%
Diluent water, active 50,000 ppm (diluted in half by antigen during testing)
  % Reduction: 100%

## O=C1O[C@H]([C@@H](O)CO)C(O)=C1O [ascorbic acid]
[2]
  % Reduction: 91%

## O=C(O)CC(O)(CC(=O)O)C(=O)O [citric acid]
Diluent water, active 5,000 ppm (diluted in half by antigen during testing)
  % Reduction: 100%

## CC(=O)C1C(=O)C=C(C)OC1=O (stereo not drawn) [dehydroacetic acid]
Diluent ethoxylated alcohol, active 2,500 ppm (diluted in half by antigen during testing)
  % Reduction: 100%

## O=C1O[C@H]([C@H](O)CO)C(O)=C1O [erythorbic acid]
[2]
  % Reduction: 96%

## CC(O)C(=O)O (stereo not drawn) [lactic acid]
Diluent water, active 3,500 ppm (diluted in half by antigen during testing)
  % Reduction: 95%

## O=C([O-])[O-].[Na+].[Na+] [sodium carbonate]
Diluent water, active 2,500 ppm (diluted in half by antigen during testing)
  % Reduction: 100%

## O=C([O-])CN(CCN(CC(=O)[O-])CC(=O)[O-])CC(=O)[O-].[Na+].[Na+].[Na+].[Na+] [tetrasodium ethylene diamine tetraacetate]
[1]
  % Reduction: 91%
